{
  "source": "patent US7838557B2",
  "about": "“Concentrated X-ray contrast media can act as universal antigens and can inhibit or prevent allergic reactions” (priority 2001, dated 2010)",
  "key": {"[1]": {"test_system": "Brown Norway Rats", "assay": "Mean arterial blood pressure after i.v. contrast media injection, Brown Norway rats", "format": "in vivo", "details": "mean ± S.E."}, "[2]": {"test_system": "IgG anti-γ-globulin", "assay": "Passive red blood cell hemagglutination inhibition, γ-globulin vs. anti-γ-globulin", "format": "binding", "details": "γ-globulin bound to sheep RBC; incubation 2-3 hours at room temperature", "description": "Employing a highly sensitive test for antibody-antigen complexing (passive red blood cell hemagglutination inhibition), we found what we consider the answer to this problem. Ovalbumin and gamma globulin (Sigma) were bound to glutaraldehyde stabilized sheep red blood cells (Inter-Cell Technologies, Hopewell, N.J.). Bis-diazotized benzidine was used to bind the ovalbumin to the RBC's. The gamma-globulin bound directly. In both the case of the ovalbumin and the gamma-globulin, the sensitized red blood cells were allowed to incubate with each of the contrast media (methylglucamine iothalamate [CONRAY; 282 mg iodine/ml, Mallinckrodt Medical, St. Louis Mo.], ioversol [[…] 320; 320 mg iodine/ml, […]; 320 mg iodine/ml, Mallinckrodt] and […]; 300 mg iodine/ml, Schering Pharmaceutical; […] When competition occurred, there would be a diminished diameter of the agglutination, depending on the antibody titer that could be compared to a control, where saline was substituted for the CM. With complete competition (inhibition), no agglutination would be visible and the RBCs would form a small button of cells at the bottom of the microtiter well. Visible agglutination was evaluated on a 1+ to 4+ basis. Studies were also carried out where the RBCs were incubated with CM before or after binding of the antigen to BDB or the RBC to determine whether competition of the CM with the antigen might actually represent displacement of the […] from the RBC surface. It was discovered that contrast media can in fact act as an antigen and combine with antibodies ([…]. and […]., Academic Radiology 1998, 5 (suppl. 1; […]-[…])). This was shown when, at various concentrations, individual contrast media would inhibit the agglutination of RBC-attached ovalbumin or RBC-attached gamma globulin in the presence of their respective antibodies, thus resulting in a button of cells, rather than agglutination, in the bottom of the microtiter well."}, "[3]": {"test_system": "Sprague Dawley Rats", "assay": "Mean arterial blood pressure after i.v. contrast media injection, Sprague Dawley rats", "format": "in vivo", "details": "mean ± S.E."}, "[4]": {"test_system": "ovalbumin-sensitized Sprague Dawley rats", "assay": "Blood pressure in ovalbumin anaphylaxis of ovalbumin-sensitized rats", "format": "in vivo", "details": "CM i.v. 6 hours before, 45 minutes before, concurrently, or 10 minutes after 10 mg ovalbumin", "description": "To further substantiate the concept that contrast media, acting as pseudoantigens, could interfere with existing antigen-antibody reactions, an experiment was conducted where a series of rats were sensitized to ovalbumin and later challenged the rats by intravenous injections of ovalbumin.\nVarying CM or other materials were injected into the tail vein of anesthetized Sprague Dawley rats ([…]). The CM tested were IOXAGLATE and IODIXANOL. Both are CM dimers and IOXAGLATE is ionic and IODIXANOL is nonionic. The CM injections were done 12 to 14 days after sensitization of the rats by intraperitoneal injections of 1 mg of ovalbumin in normal saline. A Propaq blood pressure apparatus was connected to polyethylene catheters inserted into a carotid artery to monitor mean arterial blood pressure. Injection rates were 6 ml/kg/min. The CM were injected I.V. either 6 hours before, 45 minutes before, concurrent with, or 10 minutes post challenge of a dose of 10 mg of ovalbumin. Saline injections, equiosmolar to the CM and injected at the same time intervals served as controls."}, "[5]": {"test_system": "ragweed pollen sensitized rats", "assay": "Experimental allergic conjunctivitis, ragweed pollen sensitized rats", "format": "in vivo, Sprague-Dawley rats", "description": "In this Example, the potential protective effect of a contrast material on experimental allergic conjunctivitis induced in rats was examined. The rats were sensitized systemically to either ovalbumin or ragweed pollen and 10 to 12 days later obtained local sensitization by several applications of the respective antigens to the eyes. The rats were then challenged with a larger dose of the antigen accompanied by either the contrast media or equiosmolal saline and sacrificed at several different time periods for examination of the excised eyes.\nThe tissues were examined on a “blinded” basis and assigned a 0 to 3+ rating based on the perceived abundance of inflammatory cells (mostly lymphocytes, but also including eosinophils, polymorphonuclear leukocytes, and mast cells). The ovalbumin experiment was carried out at 3 hours post antigen application (8 rats) and at 24 hours post application (8 rats) and the ragweed study was carried out at 1 hour post application (8 rats) and at 24 hours post application (8 rats). The cumulative scores for the ratings in each set of rats were recorded. Details of the ovalbumin study are as follows.\nA ragweed pollen experiment also involved 16 Sprague-Dawley rats born approximately 2 months previously and sensitized on Day 1 with SQ injections of 0.1 ml of N. saline containing 100 μg of ragweed pollen (P-0146, Sigma) and 20 mg alum. On Day 14, 20 μl of saline (left eye) or 20 μl of IODIXANOL (right eye) were applied to the eyes. 15 min. later, both eyes were treated with 10 μl of phosphate buffered saline containing 1.5 mg of ragweed pollen. The process was done 4 times at 15 min. intervals."}, "[6]": {"test_system": "Brown-Norway and Sprague Dawley rats", "assay": "Blood pressure changes in rats after H-1 blocker, L-NAME or contrast media (text and FIGS. 4A-4B)", "format": "in vivo"}, "[7]": {"test_system": "rats injected intradermally with serum from ovalbumin sensitized rats", "assay": "Passive cutaneous anaphylaxis (PCA), Evans Blue extravasation", "format": "in vivo", "details": "for Stain (mm ± S.E./10): 50 μl sensitized serum", "description": "In a further test of the ability of appropriate contrast media to mitigate ongoing antigen-antibody reactions, a passive cutaneous anaphylaxis (PCA) experiment was performed in rats.\nIn this Example, rats were injected intradermally with 50 μL of serum from ovalbumin sensitized rats and varying mixtures of Na/meglumine iothalamate (MD-76; 370 mg iodine/ml, Mallinckrodt) and normal saline to a total of 50 μl. This was followed in 5-7 hours by intravenous injections of 1 mg ovalbumin along with Evans Blue and then measurement of the subsequent extravasation of the blue coloring in the area under the skin. Evans Blue binds to serum albumin and the diameter of the area of blue indicates extravasation of albumin secondary to specific antigen-antibody reactions. […] In this case, where large amounts of CM are available due to local deposition, even an ionic monomer was sufficient to block specific antibody-antigen reactivity (see Table III below)."}},
  "data": [
    {"compound": "CNC(=O)c1c(I)c(NC(C)=O)c(I)c(C(=O)O)c1I.CNC[C@H](O)[C@@H](O)[C@H](O)[C@H](O)CO", "note": "[Conray, methylglucamine iothalamate]", "values": [
      {"measurement": "Net decrease in mean arterial blood pressure", "setting": "[1]; Monomers (4 ml)", "value": "decrease (37 ± 1.6) (3) mm Hg"},
      {"measurement": "Lowest concentration of CM showing a 2+ or 3+ inhibition of 1/500 IgG anti-γ-globulin", "setting": "[2]", "value": 28.2, "unit": "mg/mL"},
      {"measurement": "Net decrease in mean arterial blood pressure", "setting": "[3]; Monomers (4 ml)", "value": "decrease (55 ± 5.0) (3) mm Hg"}
    ]},
    {"compound": "CNC(=O)c1c(I)c(C(=O)NCC(=O)Nc2c(I)c(C(=O)O)c(I)c(C(=O)NCCO)c2I)c(I)c(N(C)C(C)=O)c1I", "note": "[HEXABRIX, IOXAGLATE]", "values": [
      {"measurement": "Net increase in mean arterial blood pressure", "setting": "[1]; Dimers (8 ml)", "value": "increase (31 ± 4.6) (3) mm Hg"},
      {"measurement": "Lowest concentration of CM showing a 2+ or 3+ inhibition of 1/500 IgG anti-γ-globulin", "setting": "[2]", "value": 8.0, "unit": "mg/mL"},
      {"measurement": "Return of blood pressure after ovalbumin challenge, compared with equiosmolar saline", "setting": "[4]", "value": "more rapid return of the blood pressure to normal levels"}
    ]},
    {"compound": "CC(=O)N(CC(O)CN(C(C)=O)c1c(I)c(C(=O)NCC(O)CO)c(I)c(C(=O)NCC(O)CO)c1I)c1c(I)c(C(=O)NCC(O)CO)c(I)c(C(=O)NCC(O)CO)c1I", "note": "(centres unmarked) [IODIXANOL]", "values": [
      {"measurement": "Return of blood pressure after ovalbumin challenge, compared with equiosmolar saline", "setting": "[4]", "value": "more rapid return of the blood pressure to normal levels"},
      {"measurement": "Cumulative score of inflammatory cell infiltration (0 to 3+ rating per eye)", "setting": "[5]; 1 HOUR READING, 20 μl applied to the eye before ragweed pollen, 8 rats", "value": 0},
      {"measurement": "Protection against ragweed pollen conjunctivitis (in words)", "setting": "[5]; local application", "value": "provides a degree of protection"},
      {"measurement": "Number of zero scores in the group", "setting": "[5]; no absolute zeros in the saline group, study (ragweed or combined) not specified", "value": 3}
    ]},
    {"compound": "CN(C(=O)CC(=O)N(C)c1c(I)c(C(=O)NC(CO)C(O)CO)c(I)c(C(=O)NC(CO)C(O)CO)c1I)c1c(I)c(C(=O)NC(CO)C(O)CO)c(I)c(C(=O)NC(CO)C(O)CO)c1I", "note": "(centres unmarked) [ISOVIST, IOTROLAN]", "values": [
      {"measurement": "Change in blood pressure (in words)", "setting": "[6]; production of nitric oxide blocked by L-NAME", "value": "can no longer produce an elevation in blood pressure"},
      {"measurement": "Change in blood pressure (in words)", "setting": "[6]; substance injected by itself", "value": "produces an elevation in pressure"},
      {"measurement": "Net increase in mean arterial blood pressure", "setting": "[1]; Dimers (4 ml)", "value": "increase (18 ± 0.00 (1) mm Hg"},
      {"measurement": "Net increase in mean arterial blood pressure", "setting": "[1]; Dimers (8 ml)", "value": "increase (20 ± 2.0) (4) mm Hg"},
      {"measurement": "Lowest concentration of CM showing a 2+ or 3+ inhibition of 1/500 IgG anti-γ-globulin", "setting": "[2]", "value": 14.0, "unit": "mg/mL"},
      {"measurement": "Net increase in mean arterial blood pressure", "setting": "[3]; Dimers (8 ml)", "value": "increase (11 ± 4.6) (3) mm Hg"}
    ]},
    {"compound": "C[C@H](O)C(=O)Nc1c(I)c(C(=O)NC(CO)CO)c(I)c(C(=O)NC(CO)CO)c1I", "note": "[Isovue, IOPAMIDOL]", "values": [
      {"measurement": "Net decrease in mean arterial blood pressure", "setting": "[1]; Monomers (8 ml)", "value": "decrease (36 ± 8.6) (2) mm Hg"},
      {"measurement": "Net decrease in mean arterial blood pressure", "setting": "[3]; Monomers (8 ml)", "value": "decrease (27 ± 8.6) (2) mm Hg"}
    ]},
    {"compound": "COC(=O)[C@@H](N)CCCNC(=N)N[N+](=O)[O-]", "note": "[L-NAME, NG-nitro-L-arginine methyl ester]", "values": [
      {"measurement": "Change in blood pressure (in words)", "setting": "[6]; substance injected by itself", "value": "immediate elevation in blood pressure"}
    ]},
    {"compound": "CNC(=O)c1c(I)c(NC(C)=O)c([125I])c(C(=O)[O-])c1[125I].[Na+]", "note": "[Na LOTHALAMATE]", "values": [
      {"measurement": "Lowest concentration of CM showing a 2+ or 3+ inhibition of 1/500 IgG anti-γ-globulin", "setting": "[2]", "value": 28.2, "unit": "mg/mL"}
    ]},
    {"compound": "O=C(NCC(O)CO)c1c(I)c(C(=O)NCC(O)CO)c(I)c(N(CCO)C(=O)CO)c1I", "note": "(centres unmarked) [OPTIRAY, IOVERSOL]", "values": [
      {"measurement": "Net decrease in mean arterial blood pressure", "setting": "[1]; Monomers (4 ml)", "value": "decrease (20 ± 1.5) (3) mm Hg"},
      {"measurement": "Net decrease in mean arterial blood pressure", "setting": "[1]; Monomers (8 ml)", "value": "decrease (33 ± 2.8) (3) mm Hg"},
      {"measurement": "Lowest concentration of CM showing a 2+ or 3+ inhibition of 1/500 IgG anti-γ-globulin", "setting": "[2]", "value": 16.0, "unit": "mg/mL"},
      {"measurement": "Net decrease in mean arterial blood pressure", "setting": "[3]; Monomers (8 ml)", "value": "decrease (22 ± 0.0) (1) mm Hg"}
    ]},
    {"compound": "CN(C)CCOC(c1ccccc1)c1ccccc1", "note": "[diphenyhydramine, diphenhydramine]", "values": [
      {"measurement": "Change in blood pressure (in words)", "setting": "[6]; substance injected by itself", "value": "immediate elevation in blood pressure"}
    ]},
    {"compound": "Na/meglumine iothalamate [MD-76]", "values": [
      {"measurement": "Stain (mm ± S.E./10)", "setting": "[7]; Site 1: 50 μl CM, 0 μl saline", "value": "7.5 ± 7", "unit": "mm"},
      {"measurement": "Stain (mm ± S.E./10)", "setting": "[7]; Site 2: 40 μl CM, 10 μl saline", "value": "10.0 ± 10", "unit": "mm"},
      {"measurement": "Stain (mm ± S.E./10)", "setting": "[7]; Site 3: 30 μl CM, 20 μl saline", "value": "17.5 ± 10", "unit": "mm"},
      {"measurement": "Stain (mm ± S.E./10)", "setting": "[7]; Site 4: 20 μl CM, 30 μl saline", "value": "62.5 ± 28", "unit": "mm"},
      {"measurement": "Stain (mm ± S.E./10)", "setting": "[7]; Site 5: 10 μl CM, 40 μl saline", "value": "115 ± 60", "unit": "mm"},
      {"measurement": "Stain", "setting": "[7]; controls with nonsensitized serum (3 rats), 0, 25, and 50 μl CM", "value": "no stain"}
    ]},
    {"compound": "meglumine/sodium diatrizoate [Angiovist]", "values": [
      {"measurement": "Net decrease in mean arterial blood pressure", "setting": "[1]; Monomers (8 ml)", "value": "decrease (40 ± 0.0) (1) mm Hg"}
    ]}
  ]
}
